Laboratory results as given in PubChem BioAssay AID493146 (Sanford-Burnham Center for Chemical Genomics, 2011).
The source made the active and inactive calls. No rule for the calls is given here.

target: intestinal alkaline phosphatase (Alpi), Mus musculus; experiment: murine Alpi activation by analogs – biochemical, luminescence, SAR follow-up (AID 493146); conditions: purified mouse IAP, luminescent substrate

| Structure (SMILES) | EC50 |
| --- | --- |
| O=C(CN1C(=O)/C(=C/c2ccco2)SC1=S)NC1CCS(=O)(=O)C1 (stereo not given) | > 100 µM (inactive) |
| Cc1ccc(NC(=O)CCNS(=O)(=O)c2ccc3[nH]c(=O)oc3c2)cc1N(C)C | > 100 µM (inactive) |
| C/C(=N\NC(=O)c1cc(O)c(O)c(O)c1)c1ccncc1 | > 100 µM (inactive) |
| CN(C(=O)CN1C(=O)/C(=C\c2ccco2)SC1=S)C1CCS(=O)(=O)C1 (stereo not given) | > 100 µM (inactive) |
| CCN(C(=O)CN1C(=O)/C(=C\c2ccco2)SC1=S)C1CCS(=O)(=O)C1 (stereo not given) | > 100 µM (inactive) |
| CC(C)C(C(=O)NC1CCS(=O)(=O)C1)N1C(=O)/C(=C\c2ccco2)SC1=S (stereo not given) | > 100 µM (inactive) |
| Cc1ccc(NC(=O)CCNS(=O)(=O)c2ccc3[nH]c(=O)oc3c2)c(C)c1 | > 100 µM (inactive) |
| Cc1ccc(NC(=O)CCNS(=O)(=O)c2ccc3[nH]c(=O)oc3c2)cc1F | > 100 µM (inactive) |
| O=C(N/N=C/c1ccccc1F)c1cc(O)c(O)c(O)c1 | > 100 µM (inactive) |
| O=C(NNC(=O)c1cc(O)c(O)c(O)c1)NC1CCCCC1 | > 100 µM (inactive) |
| CCCSc1nnc(NC(=O)CSc2sc3c(O)cc(=O)[nH]c3c2C#N)s1 | > 100 µM (inactive) |
| COc1ccccc1CNC(=O)CCNS(=O)(=O)c1ccc2[nH]c(=O)oc2c1 | > 100 µM (inactive) |
| CCOc1ccccc1CNC(=O)CCNS(=O)(=O)c1ccc2[nH]c(=O)oc2c1 | > 100 µM (inactive) |
| O=[N+]([O-])c1ccc(NC(=S)NCCC(c2ccccc2)c2ccccc2)cc1 | > 100 µM (inactive) |
| N#Cc1c(SCC(=O)Nc2ccccc2C(F)(F)F)sc2c(O)cc(=O)[nH]c12 | > 100 µM (inactive) |
| COc1cccc(NC(=O)CN(C)S(=O)(=O)c2ccc3[nH]c(=O)oc3c2)c1 | > 100 µM (inactive) |
| O=C(N/N=C/C1CC2CCC1C2)c1cc(O)c(O)c(O)c1 (stereo not given) | > 100 µM (inactive) |
| Cc1ccc(/C=C2\SC(=S)N(C3CCS(=O)(=O)C3)C2=O)o1 (stereo not given) | > 100 µM (inactive) |
| COc1cc(C(=O)NN=Cc2ccccn2)cc(OC)c1OC | > 100 µM (inactive) |
| CCOc1cccc(NC(=O)CSc2sc3c(O)cc(=O)[nH]c3c2C#N)c1 | > 100 µM (inactive) |
| COc1cc(Cl)c(C)cc1NC(=O)CSc1sc2c(O)cc(=O)[nH]c2c1C#N | > 100 µM (inactive) |
| N#Cc1c(SCC(=O)Nc2ccc(C(F)(F)F)cc2)sc2c(O)cc(=O)[nH]c12 | > 100 µM (inactive) |
| CC(C(=O)NCCc1ccc(O)c(O)c1)N1C(=O)/C(=C\c2ccco2)SC1=S (stereo not given) | > 100 µM (inactive) |
| Cc1ccc(C)c(NC(=O)CCNS(=O)(=O)c2ccc3[nH]c(=O)oc3c2)c1 | > 100 µM (inactive) |
| COc1ccc(NC(=O)C(CC(C)C)NS(=O)(=O)c2ccc3[nH]c(=O)oc3c2)cc1 (stereo not given) | > 100 µM (inactive) |

| Structure (SMILES) | EC50 |
| --- | --- |
| Cc1cc(=O)oc2cc(NC(=S)NCCC(c3ccccc3)c3ccccc3)ccc12 | > 100 µM (inactive) |
| O=C(NCCc1ccc(Cl)cc1)C1CCCN(S(=O)(=O)c2ccc3[nH]c(=O)oc3c2)C1 (stereo not given) | > 100 µM (inactive) |
| COc1cc(C(=O)NNC(=O)C2CC2)cc(OC)c1OC | > 100 µM (inactive) |
| Cc1ccc(NC(=O)CSc2sc3c(O)cc(=O)[nH]c3c2C#N)c(F)c1 | > 100 µM (inactive) |
| O=S(=O)(Nc1ncccn1)c1ccc(NC(=S)NCCC(c2ccccc2)c2ccccc2)cc1 | > 100 µM (inactive) |
| CCc1ccc(NC(=O)CN(C)S(=O)(=O)c2ccc3[nH]c(=O)oc3c2)cc1 | > 100 µM (inactive) |
| CCSc1nnc(NC(=O)CSc2sc3c(O)cc(=O)[nH]c3c2C#N)s1 | > 100 µM (inactive) |
| O=C(CN1C(=O)/C(=C/c2ccco2)SC1=S)Nc1ccc(C(=O)O)c(O)c1 | > 100 µM (inactive) |
| O=C(CN1C(=O)/C(=C/c2ccco2)SC1=S)NCCc1ccc(O)cc1 | > 100 µM (inactive) |
| COc1ccc(NC(=O)CCNS(=O)(=O)c2ccc3[nH]c(=O)oc3c2)cc1Cl | > 100 µM (inactive) |
| COc1cc(C(=O)NNC(=S)NC(=O)c2ccccc2C)cc(OC)c1OC | > 100 µM (inactive) |
| CCN(C(=O)C(C)N1C(=O)/C(=C/c2ccco2)SC1=S)C1CCS(=O)(=O)C1 (stereo not given) | > 100 µM (inactive) |
| COc1ccc(Cl)cc1NC(=O)CSc1sc2c(O)cc(=O)[nH]c2c1C#N | > 100 µM (inactive) |
| COC(=O)NNC(=O)c1cc(OC)c(OC)c(OC)c1 | > 100 µM (inactive) |
| O=C(CN1C(=O)/C(=C/c2ccco2)SC1=S)N[C@@H]1CSC[C@@H]1O | > 100 µM (inactive) |
| N#Cc1cccc(NC(=O)CCNS(=O)(=O)c2ccc3[nH]c(=O)oc3c2)c1 | > 100 µM (inactive) |
| COc1ccc(NC(=O)CSc2sc3c(O)cc(=O)[nH]c3c2C#N)c(OC)c1 | > 100 µM (inactive) |
| O=C(CCNS(=O)(=O)c1ccc2[nH]c(=O)oc2c1)Nc1cccc(-c2ccno2)c1 | > 100 µM (inactive) |
| O=C(CN1C(=O)/C(=C/c2ccco2)SC1=S)Nc1ccc(C(=O)O)cc1 | > 100 µM (inactive) |
| O=C(CN1C(=O)/C(=C\c2ccco2)SC1=S)Nc1ccc(O)cc1C(=O)O | > 100 µM (inactive) |
| O=C(CN1C(=O)/C(=C/c2ccco2)SC1=S)Nc1ccc2nccnc2c1 | > 100 µM (inactive) |
| O=C(CCN1C(=O)/C(=C\c2ccco2)SC1=S)Nc1ccc(C(=O)O)c(O)c1 | > 100 µM (inactive) |
| COc1ccc(OC)c(NC(=O)CSc2sc3c(O)cc(=O)[nH]c3c2C#N)c1 | > 100 µM (inactive) |
| COc1cc(C(=O)NNC(=O)c2n[nH]c3ccccc23)cc(OC)c1OC | > 100 µM (inactive) |
| O=C(CN1C(=O)/C(=C/c2ccco2)SC1=S)Nc1cccc(C(=O)O)c1 | > 100 µM (inactive) |
